Experiments:
[1] = target: T1, hEP3 subtype (hEP3α, hEP3-21 and hEP3-9 isoforms) (Homo sapiens, UniProt P43115); experiment: [3H]PGE2 competition binding, value stated across the three hEP3 isoforms
T1 sequence (P43115 1-390): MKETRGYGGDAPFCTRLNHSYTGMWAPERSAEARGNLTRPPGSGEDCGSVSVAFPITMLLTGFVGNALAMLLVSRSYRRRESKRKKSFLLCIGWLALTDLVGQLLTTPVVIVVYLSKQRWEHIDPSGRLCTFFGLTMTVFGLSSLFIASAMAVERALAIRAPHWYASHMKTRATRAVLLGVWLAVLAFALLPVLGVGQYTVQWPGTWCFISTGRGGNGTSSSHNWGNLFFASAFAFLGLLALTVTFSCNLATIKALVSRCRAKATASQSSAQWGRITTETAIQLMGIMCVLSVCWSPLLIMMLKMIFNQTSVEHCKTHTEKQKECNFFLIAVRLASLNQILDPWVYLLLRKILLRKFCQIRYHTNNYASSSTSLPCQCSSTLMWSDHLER
Experimental: (§1) Mammalian cell transfectants are analyzed for both the levels of EP3 receptor activity and levels of EP3 protein by the following methods. Assessing EP3 receptor activity involves the direct introduction of a labelled ligand to the cells and determining the amount of specific binding of the ligand to the EP3-expressing cells. Binding assays for receptor activity are known in the art (Frey et al., 1993, Eur. J. Pharmacol., 244, pp 239-250).
The three cloned forms of the human prostaglandin E receptor EP3 subtype (hEP3a, hEP3-21 and hEP3-9) which differ in the carboxyl terminus region of the encoded protein were individually subcloned into the pcDNAlamp plasmid (Invitrogen) and transfected into COS-M6 cells using the DEAE-dextran method. The cells were maintained in culture for 72 hours, then harvested and membranes prepared by differential centrifugation (1000 x g for 10 minutes, then 100,000 x g for 30 minutes) following lysis of the cells by nitrogen cavitation. […] Incubations were conducted for 1 hour at room temperature prior to separation of the bound and free radioligand by rapid filtration as previously described (Frey et al., 1993).

hEP1 = target: T2, hEP1 (Homo sapiens, UniProt P34995); experiment: Binding at the hEP1 subtype (comparison value); conditions: given for comparison
T2 sequence (P34995 1-402): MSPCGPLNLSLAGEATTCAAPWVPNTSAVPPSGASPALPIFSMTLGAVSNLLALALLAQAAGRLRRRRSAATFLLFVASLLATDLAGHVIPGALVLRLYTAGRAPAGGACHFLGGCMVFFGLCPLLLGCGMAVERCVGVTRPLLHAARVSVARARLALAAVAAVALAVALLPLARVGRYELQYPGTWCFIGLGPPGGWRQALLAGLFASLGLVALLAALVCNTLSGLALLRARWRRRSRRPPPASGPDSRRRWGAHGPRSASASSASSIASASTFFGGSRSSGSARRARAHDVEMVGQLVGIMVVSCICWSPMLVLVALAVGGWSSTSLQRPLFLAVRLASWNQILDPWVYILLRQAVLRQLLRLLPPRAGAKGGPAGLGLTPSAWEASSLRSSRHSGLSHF

hEP3-21 = target: T3, hEP3-21 (Homo sapiens, UniProt P43115); experiment: [3H]PGE2 binding assay, membranes of pcDNAIamp-hEP3-21 transfected COS-M6 cells; conditions: for fold less active than PGE2: competition for [3H]PGE2 specific binding, relative to PGE2
T3 construct: both a 1.7 kb full length human EP3-21 cDNA clone and a 1.4 kb full length human EP3-9 cDNA clone; expressed in transfected cells; host or cells: COS-M6 cells (membranes), pcDNAIamp vector
T3 sequence (P43115 1-388 isoform P43115-2): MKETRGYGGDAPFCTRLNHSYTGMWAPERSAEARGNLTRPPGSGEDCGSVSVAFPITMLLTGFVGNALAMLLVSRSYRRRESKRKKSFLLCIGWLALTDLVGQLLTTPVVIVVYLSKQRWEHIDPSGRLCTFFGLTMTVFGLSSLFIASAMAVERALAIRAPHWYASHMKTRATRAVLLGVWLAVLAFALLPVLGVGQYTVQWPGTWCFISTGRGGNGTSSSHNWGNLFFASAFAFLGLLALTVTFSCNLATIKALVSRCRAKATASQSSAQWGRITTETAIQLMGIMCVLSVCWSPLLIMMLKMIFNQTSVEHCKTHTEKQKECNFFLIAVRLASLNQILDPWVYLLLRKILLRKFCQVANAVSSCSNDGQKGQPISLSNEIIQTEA
Experimental: as §1, with “cells.” for “cells. Binding assays for receptor activity are known in the art (Frey et al., 1993, Eur. J. Pharmacol., 244, pp 239-250).”
(§2) The three cloned forms of the human prostaglandin E receptor EP3 subtype (hEP3a, hEP3-21 and hEP3-9) which differ in the carboxyl terminus region of the encoded protein were individually subcloned into the pcDNAlamp plasmid (Invitrogen) and transfected into COS-M6 cells using the DEAE-dextran method. The cells were maintained in culture for 72 hours, then harvested and membranes prepared by differential centrifugation (1000 x g for 10 minutes, then 100,000 x g for 30 minutes) following lysis of the cells by nitrogen cavitation.

hEP3α = target: T4, hEP3α (Homo sapiens, UniProt P43115); experiment: [3H]PGE2 binding assay, membranes of pcDNAIamp-hEP3α transfected COS-M6 cells; conditions: for fold less active than PGE2: competition for [3H]PGE2 specific binding, relative to PGE2
T4 construct: a 1.9 kb full length human EP3α cDNA clone was plaque-purified; expressed in transfected cells; host or cells: COS-M6 cells (membranes), pcDNAIamp vector
T4 sequence (P43115 1-390): T1 sequence (P43115 1-390)
Experimental: as §1, with “cells.” for “cells. Binding assays for receptor activity are known in the art (Frey et al., 1993, Eur. J. Pharmacol., 244, pp 239-250).”
as §2

hEP3-9 = target: T5, hEP3-9 (Homo sapiens, UniProt P43115); experiment: [3H]PGE2 binding assay, membranes of hEP3-9 transfected COS-M6 cells; conditions: for fold less active than PGE2: competition for [3H]PGE2 specific binding, relative to PGE2
T5 construct: both a 1.7 kb full length human EP3-21 cDNA clone and a 1.4 kb full length human EP3-9 cDNA clone; expressed in transfected cells; host or cells: COS-M6 cells (membranes), pcDNAIamp vector
T5 sequence (P43115 1-365 isoform P43115-3): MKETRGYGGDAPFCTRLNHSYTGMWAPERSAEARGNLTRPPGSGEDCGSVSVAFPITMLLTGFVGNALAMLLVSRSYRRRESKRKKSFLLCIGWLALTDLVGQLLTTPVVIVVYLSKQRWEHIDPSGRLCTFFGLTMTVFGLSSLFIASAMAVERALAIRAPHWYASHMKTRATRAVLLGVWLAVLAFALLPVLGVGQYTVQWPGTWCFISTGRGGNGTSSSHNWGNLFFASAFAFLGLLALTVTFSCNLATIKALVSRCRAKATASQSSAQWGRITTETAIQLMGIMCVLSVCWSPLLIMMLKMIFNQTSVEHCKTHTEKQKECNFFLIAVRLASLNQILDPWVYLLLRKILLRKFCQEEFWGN
Experimental: as §1, with “cells.” for “cells. Binding assays for receptor activity are known in the art (Frey et al., 1993, Eur. J. Pharmacol., 244, pp 239-250).”
as §2

thromboxane receptor = target: T6, thromboxane receptor (Homo sapiens, UniProt P21731); experiment: SQ-29548 binding to 293 cells and membranes transfected with thromboxane-receptor cDNA; conditions: human embryonic kidney 293 cells and membranes transfected with thromboxane-receptor cDNA
T6 construct: One full-length (≈ 2.9 kb) clone contained extensive 5' and 3' noncoding regions; expressed in transfected cells; host or cells: human embryonic kidney 293 cells and membranes
T6 sequence (P21731 1-343): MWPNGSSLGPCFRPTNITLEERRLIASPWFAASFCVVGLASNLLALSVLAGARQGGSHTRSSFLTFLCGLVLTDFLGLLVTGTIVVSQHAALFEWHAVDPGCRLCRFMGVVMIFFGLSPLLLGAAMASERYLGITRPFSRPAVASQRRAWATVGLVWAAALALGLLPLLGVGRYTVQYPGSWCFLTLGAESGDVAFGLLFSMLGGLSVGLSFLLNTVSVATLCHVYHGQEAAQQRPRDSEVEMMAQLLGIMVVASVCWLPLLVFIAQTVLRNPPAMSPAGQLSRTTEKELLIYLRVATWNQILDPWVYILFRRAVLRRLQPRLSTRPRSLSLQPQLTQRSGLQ
Description: The thromboxane receptor has been expressed in Xenopus oocytes. It can couple with endogenous signal transduction components to elicit a calcium-activated Cl- current recorded by electrophysiological measurement using the procedure described by Hirata, M. et al., (1991), Nature, 349, pp. 617. Binding studies have been performed with COS-1 cell membranes transfected by thromboxane receptor cDNA using the ligand S-145 (Hirata, M. et al., (1991), Nature, 349, pp. 617). […] This level of expression is at least 5-10 times higher than in platelet membranes. On a per-cell basis assuming a 10% transfection efficiency, we estimate ≈ 10^6 binding sites/tranfected cell as compared to ≈ 1300 sites present on a platelet (Hourani, S.M.O, et al., (1991), Pharmacol. Rev., 43, pp. 243).

SMILES: CCCCC(C)(O)C/C=C/[C@H]1[C@H](O)CC(=O)[C@@H]1CCCCCCC(=O)OC (mixture of isomers) [misoprostol]
- IC50 [1]: 300 to 1200 nM

SMILES: CC(C)Oc1ccc2c(=O)c3cc(C(=O)O)ccc3oc2c1 [AH6809]
- IC50 (hEP1): 500 nM
- IC50 [1]: 2000 to 7000 nM
- fold less active at the hEP3 subtype as compared with the hEP1 subtype ([1]; hEP3 versus hEP1, in general): 5-10 fold

SMILES: CCCCC[C@H](O)/C=C/[C@H]1C(=O)C[C@H](O)[C@@H]1C/C=C\CCCC(=O)O [PGD2]
- fold less active than PGE2 (hEP3-21): ~2000 fold
- fold less active than PGE2 (hEP3α): ~2000 fold
- fold less active than PGE2 (hEP3-9): ~500 fold

SMILES: CCCCC[C@H](O)/C=C/[C@H]1[C@H](O)CC(=O)[C@@H]1CCCCCCC(=O)O [PGE1]
- IC50 (hEP3-21): ~1 nM
- IC50 (hEP3α): ~1 nM
- IC50 (hEP3-9): ~1 nM

SMILES: CCCCC[C@H](O)/C=C/[C@@H]1[C@@H](C/C=C\CCCC(=O)O)[C@@H](O)C[C@H]1O [PGF2α]
- fold less active than PGE2 (hEP3-21): approximately 200 fold
- fold less active than PGE2 (hEP3α): approximately 200 fold
- fold less active than PGE2 (hEP3-9): ~65 fold

SMILES: O=C(O)CCC/C=C\C[C@@H]1[C@H](CNNC(=O)Nc2ccccc2)[C@H]2CC[C@@H]1O2 [SQ-29548]
- binding (thromboxane receptor): high affinity binding

— patent EP0705277B1, “PROSTAGLANDIN RECEPTOR EP3 AND DNA ENCODING IT” (MERCK FROSST CANADA INC., priority 1993, dated 1995)
